Laboratory results taken from PubChem BioAssay AID256 (DTP/NCI, 2004).
Values joined by “and” are separate entries in the source; they are usually repeats but may differ in a detail not shown here. Equal entries are not always repeated. Inconclusive results and toxic doses are left out. How the source made its calls: active means survival T/C of 150% or more; inactive means T/C below 125% in these data.

Test system: CD2F1 mice, L1210 leukemia ip, survival T/C
Test: NCI In Vivo Anticancer Drug Screen. Data for tumor model L1210 Leukemia (intraperitoneal) in CD2F1 (CDF1) mice
Conditions: endpoint: mean survival time, higher = longer survival
Outline: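 Compound-dosed mice with transplantable tumor versus matched vehicle controls; endpoint ratio T/C reported.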

[1] = dose: 100.0 mg/kg/injection, schedule: Q04DX003 (ip), vehicle: saline with Tween-80
[2] = dose: 200.0 mg/kg/injection, schedule: Q04DX003 (ip), vehicle: saline with Tween-80
[3] = dose: 400.0 mg/kg/injection, schedule: Q04DX003 (ip), vehicle: saline with Tween-80
[4] = dose: 25.0 mg/kg/injection, schedule: Q01DX009 (ip), vehicle: saline with Tween-80
[5] = dose: 50.0 mg/kg/injection, schedule: Q01DX009 (ip), vehicle: saline with Tween-80
[6] = dose: 100.0 mg/kg/injection, schedule: Q01DX009 (ip), vehicle: saline with Tween-80

Measured: T/C

CCOC(=O)N1CCN(N=Nc2c(C(=O)OC)n[nH]c2C)CC1
inactive: dose: 75.0 mg/kg/injection, schedule: Q01DX001 (ip), vehicle: other 103 % of control | dose: 150.0 mg/kg/injection, schedule: Q01DX001 (ip), vehicle: other 105 % of control | dose: 300.0 mg/kg/injection, schedule: Q01DX001 (ip), vehicle: other 105 % of control

CCc1c(Br)c(CC)c(Br)c(CC)c1Br
inactive: [1] 98 % of control | [2] 97 % of control | [3] 98 % of control

c1cc2c(c(N3CCNCC3)c1)CCCC2
inactive: dose: 100.0 mg/kg/injection, schedule: Q01DX001 (ip), vehicle: saline with Tween-80 110 % of control | dose: 200.0 mg/kg/injection, schedule: Q01DX001 (ip), vehicle: saline with Tween-80 95 % of control

CC(C)C(O)c1ccccc1 (stereo unspecified)
inactive: dose: 12.5 mg/kg/injection, schedule: Q01DX009 (ip), vehicle: saline with Tween-80 103 % of control | dose: 25.0 mg/kg/injection, schedule: Q01DX005 (ip), vehicle: saline with Tween-80 92 % of control | [4] 106 % of control | dose: 50.0 mg/kg/injection, schedule: Q01DX005 (ip), vehicle: saline with Tween-80 95 % of control | [5] 95 % of control | dose: 50.0 mg/kg/injection, schedule: Q04DX002 (ip), vehicle: saline with Tween-80 108 % of control | dose: 100.0 mg/kg/injection, schedule: Q01DX005 (ip), vehicle: saline with Tween-80 88 % of control | [6] 88 % of control | dose: 100.0 mg/kg/injection, schedule: Q04DX002 (ip), vehicle: saline with Tween-80 101 % of control | dose: 200.0 mg/kg/injection, schedule: Q04DX002 (ip), vehicle: saline with Tween-80 89 % of control

COc1ccc(N=C(N)N=C(N)N)cc1
inactive: [4] 102 % of control | [5] 96 % of control | [6] 106 % of control

CCCCC(c1ccccc1)P(=O)(OCC)OCC (stereo unspecified)
inactive: [4] 97 % of control | [5] 103 % of control | [6] 102 % of control and 111 % of control

O=C(N/N=C/c1ccc(Cl)c(Cl)c1)c1ccccc1
inactive: dose: 100.0 mg/kg/injection, schedule: Q01DX009 (ip), vehicle: Klucel (hydroxypropylcellulose) (HPC) 94 % of control | dose: 100.0 mg/kg/injection, schedule: Q04DX003 (ip), vehicle: Klucel (hydroxypropylcellulose) (HPC) 96 % of control | dose: 200.0 mg/kg/injection, schedule: Q01DX009 (ip), vehicle: Klucel (hydroxypropylcellulose) (HPC) 90 % of control | dose: 200.0 mg/kg/injection, schedule: Q04DX003 (ip), vehicle: Klucel (hydroxypropylcellulose) (HPC) 88 % of control | dose: 400.0 mg/kg/injection, schedule: Q01DX009 (ip), vehicle: Klucel (hydroxypropylcellulose) (HPC) 89 % of control | dose: 400.0 mg/kg/injection, schedule: Q04DX003 (ip), vehicle: Klucel (hydroxypropylcellulose) (HPC) 97 % of control

CC(C)(C)N1CCCC1
inactive: dose: 100.0 mg/kg/injection, schedule: Q04DX003 (ip), vehicle: acetone 96 % of control

Nc1cc(Cl)c(I)cc1Cl
inactive: dose: 100.0 mg/kg/injection, schedule: Q01DX001 (ip), vehicle: saline 102 % of control | dose: 200.0 mg/kg/injection, schedule: Q01DX001 (ip), vehicle: saline 102 % of control | dose: 400.0 mg/kg/injection, schedule: Q01DX001 (ip), vehicle: saline 101 % of control

CC12CCC(=O)C=C1CCCC2O (stereo unspecified)
inactive: dose: 100.0 mg/kg/injection, schedule: Q04DX003 (ip), vehicle: saline sonified 97 % of control | dose: 200.0 mg/kg/injection, schedule: Q04DX003 (ip), vehicle: saline sonified 112 % of control

O=c1[nH]cnc2[nH]ccc12
inactive: dose: 75.0 mg/kg/injection, schedule: Q01DX001 (ip), vehicle: saline 110 % of control | dose: 150.0 mg/kg/injection, schedule: Q01DX001 (ip), vehicle: saline 96 % of control

CN(C)C(=S)NCc1ccccc1
inactive: [1] 105 % of control | [2] 109 % of control | [3] 87 % of control

O=C(OC1C=CC2CCC1C2)c1ccc([N+](=O)[O-])cc1 (stereo unspecified)
inactive: [5] 98 % of control | [6] 94 % of control | [1] 87 % of control | dose: 200.0 mg/kg/injection, schedule: Q01DX009 (ip), vehicle: saline with Tween-80 93 % of control | [2] 87 % of control
